Experimental data reported in patent US8653114B2, “O-cyclopropylcyclohexyl-carboxanilides and their use as fungicides” (priority 2010, dated 2014).
Where two headings read alike, the source gives them in different places.

Columns and labels:
Puccinia triticina = experiment: Puccinia triticina-test (wheat) / preventive; type: in vivo; details: 500 ppm of active ingredient, evaluated 8 days after inoculation
Method: (§1) Puccinia triticina-Test (Wheat)/Preventive [table] To produce a suitable preparation of active compound, 1 part by weight of active compound or active compound combination is mixed with the stated amounts of solvent and emulsifier, and the concentrate is diluted with water to the desired concentration. To test for preventive activity, young plants are sprayed with the preparation of active compound or active compound combination at the stated rate of application. After the spray coating has been dried, the plants are sprayed with a spore suspension of Puccinia triticina.

[1] = system: Fusarium nivale (var. majus); experiment: Fusarium nivale (var. majus)-test (wheat) / preventive; type: in vivo; details: 500 ppm of active ingredient, evaluated 5 days after inoculation
Method: Fusarium nivale (var. majus)-Test (Wheat)/Preventive [table] To produce a suitable preparation of active compound, 1 part by weight of active compound or active compound combination is mixed with the stated amounts of solvent and emulsifier, and the concentrate is diluted with water to the desired concentration. To test for preventive activity, young plants are sprayed with the preparation of active compound or active compound combination at the stated rate of application. After the spray coating has been dried, the plants are slightly injured by using a sandblast and afterwards they are sprayed with a conidia suspension of Fusarium nivale (var. majus).

Alternaria solani = experiment: Alternaria test (tomato) / preventive; type: in vivo; details: 500 ppm of active ingredient, evaluated 7 days after inoculation
Method: (§2) Alternaria Test (Tomato)/Preventive [table] To produce a suitable preparation of active compound, 1 part by weight of active compound is mixed with the stated amounts of solvent and emulsifier, and the concentrate is diluted with water to the desired concentration. To test for preventive activity, young plants are sprayed with the preparation of active compound at the stated rate of application. One day after this treatment, the plants are inoculated with an aqueous spore suspension of Alternaria solani.

Septoria tritici = experiment: Septoria tritici-test (wheat) / preventive; type: in vivo; details: 500 ppm of active ingredient, evaluated 21 days after inoculation
Method: as §1, with “Septoria tritici-Test” for “Puccinia triticina-Test”, “Septoria tritici.” for “Puccinia triticina.”

Sphaerotheca fuliginea = experiment: Sphaerotheca test (cucumber) / preventive; type: in vivo; details: 500 ppm of active ingredient, evaluated 7 days after inoculation
Method: as §2, with “Sphaerotheca” for “Alternaria”, “(Cucumber)/Preventive” for “(Tomato)/Preventive”, “Sphaerotheca fuliginea. Then the plants are placed in a greenhouse at approximately 23° C. and a relative atmospheric humidity of approximately 70%.” for “Alternaria solani.”

[2] = log P by HPLC on reversed phase columns (EEC directive 79/831 Annex V.A8); type: physicochemical; details: for chromatographic logP: reversed phase HPLC columns
Method: Measurement of log P values was performed according EEC directive 79/831 Annex V.A8 by HPLC (High Performance Liquid Chromatography) on reversed phase columns with the following methods:
^[b] measurement of LC-MS was done at pH 2.7 with 0.1% formic acid in water and with acetonitrile (contains 0.1% formic acid) as eluent with a linear gradient from 10% acetonitrle to 95% acetonitrile.

Pyrenophora teres = experiment: Pyrenophora test (barley) / preventive; type: in vivo; details: 500 ppm of active ingredient, evaluated 7-9 days after inoculation
Method: as §2, with “Pyrenophora” for “Alternaria”, “(Barley)/Preventive” for “(Tomato)/Preventive”, “Pyrenophora teres.” for “Alternaria solani.”

Venturia inaequalis = experiment: Venturia test (apples) / preventive; type: in vivo; details: 100 ppm of active ingredient, evaluated 10 days after inoculation
Method: Venturia Test (Apples)/Preventive [table] To produce a suitable preparation of active compound, 1 part by weight of active compound is mixed with the stated amounts of solvent and emulsifier, and the concentrate is diluted with water to the desired concentration. To test for preventive activity, young plants are sprayed with the preparation of active compound at the stated rate of application.

Podosphaera leucotricha = experiment: Podosphaera test (apples) / preventive; type: in vivo; details: 100 ppm of active ingredient, evaluated 10 days after inoculation
Method: Podosphaera Test (Apples)/Preventive [table] To produce a suitable preparation of active compound, 1 part by weight of active compound is mixed with the stated amounts of solvent and emulsifier, and the concentrate is diluted with water to the desired concentration. To test for preventive activity, young plants are sprayed with the preparation of active compound at the stated rate of application. After the spray coating has dried on, the plants are inoculated with an aqueous spore suspension of the causal agent of apple mildew (Podosphaera leucotricha). The plants are then placed in a greenhouse at approximately 23° C. and a relative atmospheric humidity of approximately 70%.

[3] = system: Blumeria graminis f. sp. hordei; experiment: Blumeria test (barley) / preventive; type: in vivo; details: 500 ppm of active ingredient, evaluated 7 days after inoculation
Method: Blumeria Test (Barley)/Preventive [table] To produce a suitable preparation of active compound, 1 part by weight of active compound or active compound combination is mixed with the stated amounts of solvent and emulsifier, and the concentrate is diluted with water to the desired concentration. To test for preventive activity, young plants are sprayed with the preparation of active compound or active compound combination at the stated rate of application. After the spray coating has been dried, the plants are dusted with spores of Blumeria graminis f. sp. hordei.

Structure (SMILES)	Eff. % (Puccinia triticina) [%]	Eff. % [1] [%]	Eff. % (Alternaria solani) [%]	Eff. % (Septoria tritici) [%]	Eff. % (Sphaerotheca fuliginea) [%]	chromatographic logP ([2]; pH 2.7, HPLC/LC-MS at pH 2.7, 0.1% formic acid in water / acetonitrile gradient, read-out: Log P[b])	chromatographic logP ([2]; pH 2.7, acid, product isolated with a purity of 87% LC-MS, read-out: log P (acid))	Eff. % (Pyrenophora teres) [%]	Eff. % (Venturia inaequalis) [%]	Eff. % (Podosphaera leucotricha) [%]	Eff. % [3] [%]	Log P[b] ([2]; HPLC/LC-MS at pH 2.7, 0.1% formic acid in water / acetonitrile gradient)
Cn1nc(C(F)F)c(C(=O)NC2CCCCC2C2CC2C2CC2)c1F (single isomer, unassigned) [Example 1, N-{2-[1,1′-bi(cyclopropyl)-2-yl]cyclohexyl}-3-(difluoromethyl)-5-fluoro-1-methyl-1H-pyrazole-4-carboxamide]	100	100	100	90	100	4.02	4.02	100	100	100	100	
Cn1nc(C(F)F)c(C(=O)NC2CCCCC2C2CC2C2CC2)c1F (single isomer, unassigned) [Example 2, N-{2-[1,1′-bi(cyclopropyl)-2-yl]cyclohexyl}-3-(difluoromethyl)-5-fluoro-1-methyl-1H-pyrazole-4-carboxamide]	100	100	100	90	100			100	100	100	100	3.84
